Laboratory results as given in PMC9413440, “An Iterative Approach Guides Discovery of the FabI Inhibitor Fabimycin, a Late-Stage Antibiotic Candidate with In Vivo Efficacy against Drug-Resistant Gram-Negative Infections” (ACS Central Science, 2022).
≈ marks a conversion by molar mass, not a printed value. Where two headings read alike, the source gives them in different places.

Tests used:
Assay type in all cases: cell-based
E. coli AR-0055 = assay: MIC against infective strain of UTI model; conditions: Escherichia coli, AR0055; extensively drug-resistant, carbapenem-resistant E. coli of the UTI model (AR-0055)
Experimental: (§1) II. Materials and Methods for Biological Experiments
(§2) S. aureus ATCC 29213 and E. coli MG1655 were obtained from the American Type Culture Collection (ATCC). E. coli BW25113 and E. coli JW5503 were obtained from the Keio Collection. AR-bank strains were obtained from the Centers for Disease Control and Prevention and FDA Antibiotic Resistance Isolate Bank.
(§3) Antimicrobial susceptibility tests
(§4) Susceptibility testing was performed in biological triplicate, unless noted otherwise, using the micro-dilution broth method as outlined by the Clinical and Laboratory Standards Institute. Bacteria were cultured with cation-adjusted Mueller Hinton broth (Sigma Aldrich, catalogue number: 90922). […]
NH3: m/z 391.2 → 171.0. Fabimycin: m/z 405.3 → 145.3. Power analysis was not used to determine the number of replicates. Error bars represent the standard error of the mean of three biological replicates. All compounds evaluated in biological assays were ≥95% pure.

[1] = tested on: A. baumannii 19606 FabI mutants; assay: MIC of fabimycin-resistant mutants; conditions: Acinetobacter baumannii
Experimental: as §1, §2, §3, §4
(§5) Error bars represent the standard error of the mean of three biological replicates. All compounds evaluated in biological assays were ≥95% pure.
(§6) Selection of resistant mutants
(§7) Resistant mutants were generated using the large inoculum method. Briefly, S. aureus 29213, E. coli MG1655, and A. baumannii 19606 (~1 x 1010 CFUs) was plated on 100-mm plates (E. coli and A. baumannii) or 150-mm plates (S. aureus) of MH agar containing either 128, 64, or 32 µg/mL fabimycin (for gram-negatives) or 0.125, 0.062, and 0.031 µg/mL fabimycin (for S. aureus). Plates were incubated at 37 °C for 48 h and counted for the presence of colony forming units.
(§8) Glycerol stocks of selected colonies were made, and resistant colonies confirmed by growing on agar plates containing the same concentration of fabimycin that they were generated at.
(§9) Sequencing of bacterial fabI
(§10) The FabI gene was amplified by PCR. Fabimycin-resistant colonies were picked and diluted in 100 µL sterile, nuclease-free H2O. PCR reactions were then set up by combining 14 µL H2O, 1 µL 20 µM primer mix, 10 µL template (bacteria solution in H2O), and 25 µL MiFi Mix (Bioline). The reaction was performed on a C1000 Thermal Cycler (Bio-Rad) under the following conditions for 35 cycles: initial denature: 95 °C for 3 min; denature 95 °C for 15 s; anneal: 57 °C for 15 s; extend 72 °C for 30 s; final extend: 72 °C for 3 min. A 10 µL portion of PCR reaction mixture was analyzed by agarose gel electrophoresis to confirm the single 1.4-kilobase pair product. PCR products were purified using a GeneJET PCR Purification Kit (Thermo Fischer Scientific). PCR amplicons were submitted to the Core DNA Sequencing Facility at the University of Illinois at Urbana-Champaign for Sanger sequencing with overlapping internal primers. All primers were obtained from Integrated DNA Technologies.
(§11) Primers for sequencing of fabI gene in select pathogens: […]
(§12) Organism Sequence Reference
(§13) Forward 5’-GGG-GCC-AGC-GTT-TCT-TTT-TC-3‘ Parker, 20203
(§14) Reverse 5’-AAA-CAT-GGA-GAC-GGT-GCT-GG
(§15) Forward 5’-GTG-AGA-TCG-GCA-TGA-CAC-AA-3’ Lin, 20179
(§16) Reverse 5’-CTG-AAG-TCC-GCT-ACC-GTT-AT-3’
(§17) Compound stability in mammalian plasma
(§18) Candidate drugs were incubated with plasma and parent drug levels were monitored at various time points (generally t=0, 10, 20, 30, and 60 minutes) to determine the drug’s half-life in the presence of the chosen system. Each drug is tested in duplicate. Compounds were diluted from 10 mM DMSO stocks to 1 µM in a 100 mM pH 7.4 phosphate buffer and incubated at 37 °C with 0.5 mg/mL of human, rat, or mouse plasma (BioreclamationIVT, Baltimore, MD). Time points were collected at 0 min (after addition of drug), 15 min, 30 min, 60 min, and 120 min following quenching with an equal volume of acetonitrile. The supernatant was collected after centrifugation, and the sample analyzed by LC-MS where the percentage of compound remaining is plotted vs time to determine the drug’s half-life.
(§19) Compound plasma protein binding
(§20) Candidate drugs were incubated with plasma and parent drug levels are monitored after 4 hours to determine the drug’s free concentration in the presence of the plasma proteins. The standard assay involves equilibrium dialysis, in which compound is allowed to equilibrate between a protein-containing compartment from a protein-free compartment. Each

[2] = tested on: E. coli MG1655 FabI mutants; assay: MIC of fabimycin-resistant mutants; conditions: Escherichia coli
Experimental: as §1, §2, §3, §4, §5, §6, §7, §8, §9, §10, §11, §12, §13, §14, §15, §16, §17, §18, §19, §20

## Cc1c(CN(C)C(=O)/C=C/c2cnc3c(c2)CC[C@H](N)C(=O)N3)oc2ccccc12 [fabimycin]
E. coli AR-0055
  MIC: 2 µg/mL (≈ 4.94 µM)
[1]; FabI mutation A118T, plated at 16x MIC (32 μg/mL), colonies 4/5, read-out: MIC of mutants
  MIC: 64 to 128 µg/mL
[1]; FabI mutation N160K, plated at 16x MIC (32 μg/mL), colonies 1/5, read-out: MIC of mutants
  MIC: 128 µg/mL
[1]; read-out: MIC of mutants, FabI WT, plated at 8x MIC (16 μg/mL), colonies 2/5
  MIC: 8 to 16 µg/mL
[1]; read-out: MIC of mutants, FabI mutation A118T, plated at 32x MIC (64 μg/mL), colonies 4/5
  MIC: 64 µg/mL
[1]; read-out: MIC of mutants, FabI mutation A118V, plated at 8x MIC (16 μg/mL), colonies 1/5
  MIC: 128 µg/mL
[1]; read-out: MIC of mutants, FabI mutation F206L, plated at 8x MIC (16 μg/mL), colonies 1/5
  MIC: 32 µg/mL
[1]; read-out: MIC of mutants, FabI mutation G151S, plated at 32x MIC (64 μg/mL), colonies 1/5
  MIC: 64 µg/mL
[1]; read-out: MIC of mutants, FabI mutation M162T, plated at 8x MIC (16 μg/mL), colonies 1/5
  MIC: 128 µg/mL
[2]; MG1655, FabI mutation G148S, plated at 16x MIC (32 μg/mL), colonies 2/5, read-out: MIC of mutants
  MIC: ≥ 128 µg/mL
[2]; MG1655, read-out: MIC of mutants, FabI mutation G148A, plated at 8x MIC (16 μg/mL), colonies 3/5
  MIC: 32 to 64 µg/mL
[2]; MG1655, read-out: MIC of mutants, FabI mutation G148A, plated at 16x MIC (32 μg/mL), colonies 3/5
  MIC: 64 µg/mL
[2]; MG1655, read-out: MIC of mutants, FabI mutation G148S, plated at 8x MIC (16 μg/mL), colonies 1/5
  MIC: 128 µg/mL
[2]; MG1655, read-out: MIC of mutants, FabI mutation M159T, plated at 8x MIC (16 μg/mL), colonies 1/5
  MIC: 32 µg/mL
